Source: ChEMBL document CHEMBL4376863, “Identification of Selective Inhibitors of Plasmodium N-Myristoyltransferase by High-Throughput Screening” (J Med Chem, 2020)
The source made the active and inactive calls. No cut-off for these calls is given here.

Experiments:
Plasmodium falciparum = assay: Antiplasmodial activity against asexual blood stage Plasmodium falciparum 3D7A MR4 infected in human RBCs assessed as decrease in [3H]-hypoxanthine incorporation pretreated for 24 hrs in presence of hypoxanthine followed by [3H]-hypoxanthine addition after 24 hrs by microbeta scintillation counter analysis; type: functional, organism-based
[1] = molecular target: T1, Glycylpeptide N-tetradecanoyltransferase (Plasmodium falciparum (isolate 3D7)) (UniProt Q8ILW6); assay: Competitive inhibition of Plasmodium falciparum NMT (27 to 410 residues) expressed in Escherichia coli Rosetta (DE3) using H-GLYVSRLFNRLFQKK-NH2 as substrate
T1 sequence (whole entry): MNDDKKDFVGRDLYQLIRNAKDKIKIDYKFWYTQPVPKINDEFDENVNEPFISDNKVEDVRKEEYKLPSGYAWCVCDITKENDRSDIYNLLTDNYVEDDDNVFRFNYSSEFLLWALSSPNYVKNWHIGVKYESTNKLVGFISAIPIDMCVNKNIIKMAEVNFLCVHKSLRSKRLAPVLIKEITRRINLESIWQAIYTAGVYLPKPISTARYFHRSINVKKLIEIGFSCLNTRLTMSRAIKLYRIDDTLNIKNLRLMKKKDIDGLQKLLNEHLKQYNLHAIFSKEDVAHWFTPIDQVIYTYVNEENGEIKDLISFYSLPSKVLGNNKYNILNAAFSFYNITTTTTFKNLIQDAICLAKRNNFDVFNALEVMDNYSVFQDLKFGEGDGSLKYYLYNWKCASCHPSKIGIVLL

[2] = molecular target: T1, Glycylpeptide N-tetradecanoyltransferase (Plasmodium falciparum (isolate 3D7)); assay: Binding affinity to Plasmodium falciparum NMT (27 to 410 residues) expressed in Escherichia coli Rosetta (DE3) assessed as change in melting temperature at 100 uM in absence of 100 uM myristoyl-CoA by Sypro orange dye based differential scanning fluorimetry (reference value: 0 degreeC)
[3] = molecular target: T1, Glycylpeptide N-tetradecanoyltransferase (Plasmodium falciparum (isolate 3D7)); assay: Binding affinity to Plasmodium falciparum NMT (27 to 410 residues) expressed in Escherichia coli Rosetta (DE3) assessed as change in melting temperature at 100 uM in presence of 100 uM myristoyl-CoA by Sypro orange dye based differential scanning fluorimetry (reference value: 0 degreeC)

Row | SMILES | Activity (Plasmodium falciparum) | inhibition [1] | ΔTm [2] | ΔTm [3]
1 | Cc1ccc(-n2nc(C(=O)N3CCCN(C)CC3)c3ccccc32)cc1 | inactive | Active | -0.02 °C | 6.17 °C
2 | CCN(c1ccccc1)S(=O)(=O)c1ccc(Cl)c(C(=O)Nc2ccccc2N2CCCC2=O)c1 | inactive |  | 1.42 °C | 7.33 °C
3 | O=C(c1ccc2c(c1)N(Cc1ccccc1)C(=O)c1ccccc1[S+]2[O-])N1CCCCC1 (stereo not drawn) | inactive |  | 1.84 °C | 8.05 °C
4 | O=C(c1cccc(NCc2cc(-c3ccc(Cl)cc3)c[nH]c2=O)c1)N1CCOCC1 | inactive | Active | -0.3 °C | 2.16 °C
5 | Clc1cccc(O[C@H]2C[C@H](NCc3cnc4[nH]ccc4c3)C2)c1Cl | inactive | Active | -2.91 °C | 6.57 °C
